Assay results: the NIST ThermoML archive (doi:10.1021/je400630f)
Where “and” joins values, the source holds several entries; their conditions need not be identical. Identical values can stand only once. Numbers after ± are expanded uncertainties.

Columns and labels:
[1] = 100 kPa, Liquid; for viscosity: Capillary tube (Ostwald / Ubbelohde) method
[2] = xn = mol fraction of the nth substance listed; conditions: 100 kPa, Liquid, x1 = 1; for viscosity: Capillary tube (Ostwald / Ubbelohde) method

Row | Structure (SMILES) | mass density ([1]; 283.15 K) | viscosity ([1]; 283.15 K) | mass density ([1]; 293.15 K) | viscosity ([1]; 293.15 K) | mass density ([1]; 298.15 K) | viscosity ([1]; 298.15 K) | mass density ([1]; 303.15 K) | viscosity ([1]; 303.15 K) | mass density ([1]; 313.15 K) | viscosity ([1]; 313.15 K) | viscosity ([2]; 283.15 K) | mass density ([2]; 283.15 K) | viscosity ([2]; 293.15 K) | mass density ([2]; 293.15 K) | viscosity ([2]; 298.15 K) | mass density ([2]; 298.15 K) | viscosity ([2]; 303.15 K) | mass density ([2]; 303.15 K) | viscosity ([2]; 313.15 K) | mass density ([2]; 313.15 K)
1 | CCCCO [butan-1-ol] | 817.3 ± 1.2 kg/m3 | 3.822 ± 0.079 mPa·s | 809.6 ± 1.3 kg/m3 | 2.859 ± 0.059 mPa·s | 805.8 ± 1.3 kg/m3 | 2.558 ± 0.053 mPa·s | 802.1 ± 1.3 kg/m3 | 2.236 ± 0.046 mPa·s | 794.3 ± 1.3 kg/m3 | 1.736 ± 0.036 mPa·s | – | – | – | – | – | – | – | – | – | –
2 | CCCCCCCCCCO [decan-1-ol] | 836.6 ± 1.2 kg/m3 | 22.06 ± 0.45 mPa·s | 829.9 ± 1.2 kg/m3 | 14.5 ± 0.3 mPa·s | 826.5 ± 1.2 kg/m3 | 11.47 ± 0.24 mPa·s | 823 ± 1.2 kg/m3 | 9.61 ± 0.2 mPa·s | 816.2 ± 1.3 kg/m3 | 6.9 ± 0.14 mPa·s | – | – | – | – | – | – | – | – | – | –
3 | CCO [ethanol] | 798 ± 1.3 kg/m3 | 1.475 ± 0.031 mPa·s | 789.5 ± 1.4 kg/m3 | 1.196 ± 0.025 mPa·s | 785.2 ± 1.4 kg/m3 | 1.102 ± 0.023 mPa·s | 781.1 ± 1.4 kg/m3 | 0.996 ± 0.021 mPa·s and 0.994 ± 0.021 mPa·s | 772.3 ± 1.4 kg/m3 | 0.842 ± 0.018 mPa·s | – | – | – | – | – | – | – | – | – | –
4 | CCO [ethanol] + CCCCCCCCCCO | – | – | – | – | – | – | – | – | – | – | 1.475 ± 0.031 mPa·s | 798 ± 1.3 kg/m3 | 1.196 ± 0.025 mPa·s | 789.5 ± 1.4 kg/m3 | 1.102 ± 0.023 mPa·s | 785.2 ± 1.4 kg/m3 | 0.996 ± 0.021 mPa·s | 781.1 ± 1.4 kg/m3 | 0.842 ± 0.018 mPa·s | 772.3 ± 1.4 kg/m3
5 | CCO [ethanol] + CCCCCCCCCO | – | – | – | – | – | – | – | – | – | – | 1.475 ± 0.031 mPa·s | 798 ± 1.3 kg/m3 | 1.196 ± 0.025 mPa·s | 789.5 ± 1.4 kg/m3 | 1.102 ± 0.023 mPa·s | 785.2 ± 1.4 kg/m3 | 0.996 ± 0.021 mPa·s | 781.1 ± 1.4 kg/m3 | 0.842 ± 0.018 mPa·s | 772.3 ± 1.4 kg/m3
6 | CCO [ethanol] + CCCCCCCCO | – | – | – | – | – | – | – | – | – | – | 1.475 ± 0.031 mPa·s | 798 ± 1.3 kg/m3 | 1.196 ± 0.025 mPa·s | 789.5 ± 1.4 kg/m3 | 1.102 ± 0.023 mPa·s | 785.2 ± 1.4 kg/m3 | 0.994 ± 0.021 mPa·s | 781.1 ± 1.4 kg/m3 | 0.842 ± 0.018 mPa·s | 772.3 ± 1.4 kg/m3
7 | CCO [ethanol] + CCCCCCCO | – | – | – | – | – | – | – | – | – | – | 1.475 ± 0.031 mPa·s | 798 ± 1.3 kg/m3 | 1.196 ± 0.025 mPa·s | 789.5 ± 1.4 kg/m3 | 1.102 ± 0.023 mPa·s | 785.2 ± 1.4 kg/m3 | 0.996 ± 0.021 mPa·s | 781.1 ± 1.4 kg/m3 | 0.842 ± 0.018 mPa·s | 772.3 ± 1.4 kg/m3
8 | CCO [ethanol] + CCCCCO | – | – | – | – | – | – | – | – | – | – | 1.475 ± 0.031 mPa·s | 798 ± 1.3 kg/m3 | 1.196 ± 0.025 mPa·s | 789.5 ± 1.4 kg/m3 | 1.102 ± 0.023 mPa·s | 785.2 ± 1.4 kg/m3 | 0.996 ± 0.021 mPa·s | 781.1 ± 1.4 kg/m3 | 0.842 ± 0.018 mPa·s | 772.3 ± 1.4 kg/m3
9 | CCO [ethanol] + CCCCO | – | – | – | – | – | – | – | – | – | – | 1.475 ± 0.031 mPa·s | 798 ± 1.3 kg/m3 | 1.196 ± 0.025 mPa·s | 789.5 ± 1.4 kg/m3 | 1.102 ± 0.023 mPa·s | 785.2 ± 1.4 kg/m3 | 0.996 ± 0.021 mPa·s | 781.1 ± 1.4 kg/m3 | 0.842 ± 0.018 mPa·s | 772.3 ± 1.4 kg/m3
10 | CCCCCCCO [heptan-1-ol] | 829.6 ± 1.3 kg/m3 | 10.15 ± 0.21 mPa·s | 822.6 ± 1.3 kg/m3 | 7.026 ± 0.15 mPa·s | 819.1 ± 1.3 kg/m3 | 5.947 ± 0.12 mPa·s | 815.6 ± 1.3 kg/m3 | 5.041 ± 0.11 mPa·s | 808.4 ± 1.4 kg/m3 | 3.802 ± 0.08 mPa·s | – | – | – | – | – | – | – | – | – | –
11 | CCCCCCCCCO [nonan-1-ol] | 835 ± 1.3 kg/m3 | 17.44 ± 0.36 mPa·s | 828.1 ± 1.3 kg/m3 | 11.63 ± 0.24 mPa·s | 824.7 ± 1.3 kg/m3 | 9.519 ± 0.2 mPa·s | 821.3 ± 1.3 kg/m3 | 7.806 ± 0.16 mPa·s | 814.3 ± 1.4 kg/m3 | 5.668 ± 0.12 mPa·s | – | – | – | – | – | – | – | – | – | –
12 | CCCCCCCCO [octan-1-ol] | 832.1 ± 1.2 kg/m3 | 13.49 ± 0.28 mPa·s | 825.2 ± 1.2 kg/m3 | 9.016 ± 0.19 mPa·s | 821.9 ± 1.2 kg/m3 | 7.39 ± 0.15 mPa·s | 818.4 ± 1.3 kg/m3 | 6.306 ± 0.13 mPa·s | 811.4 ± 1.3 kg/m3 | 4.587 ± 0.095 mPa·s | – | – | – | – | – | – | – | – | – | –
13 | CCCCCO [pentan-1-ol] | 822.1 ± 1.3 kg/m3 | 5.417 ± 0.11 mPa·s | 814.7 ± 1.3 kg/m3 | 3.974 ± 0.083 mPa·s | 811.2 ± 1.3 kg/m3 | 3.441 ± 0.072 mPa·s | 807.5 ± 1.3 kg/m3 | 2.99 ± 0.062 mPa·s | 800 ± 1.4 kg/m3 | 2.263 ± 0.047 mPa·s | – | – | – | – | – | – | – | – | – | –
